26 compounds from US8785459B2, “Quinazoline compounds as kinase inhibitors” (Development Center for Biotechnology, priority 2011, dated 2014) can be followed below.

Common to all, as to assay type: biochemical
For one assay, the target named is B-Raf (Homo sapiens (Human), UniProt P15056). As to the kind of experiment: Raf kinase assay (B-Raf), [33P] incorporation into MEK1(K97R). Conditions: for inhibition at 1 µM: 1.0 μM compound, read-out: B-Raf inhibition at 1.0 μM. On the procedure:
(§1) A. Raf Kinase Assays (B-Raf, B-raf (V600E), and C-Raf)
(§2) Inhibition of kinase activity by test compound disclosed herein was estimated by quantifying the amount of [^33P] incorporation of substrate in the presence of test compound. Standard assay conditions were 2 ng of recombinant C-Raf or 5 ng of recombinant B-Raf or 5 ng of recombinant B-Raf (V600E) kinase (Upstate Biotechnology) with 500 ng MEK1(K97R) in assay buffer {8 μM ATP, 0.5 μCi [^33P]ATP (specific activity 3000 Ci/mmol, PerkinElmer), 50 mM Tris/HCl (pH7.5), and 1 mM EGTA, 1 mM Na3VO4, 1% 2-mercaptoethanol, 0.1% Brij 35, and 0.2 mg/ml BSA} at a final volume of 25 μL. Reactions were incubated at 30° C. for 30 min and stopped by adding 3% phosphoric acid, harvested onto a 96-well GF/B UniFilter (PerkinElmer) using a unifilter harvester (PerkinElmer), and counted with a TopCount microplate scintillation counter (PerkinElmer). The IC50 values of inhibitors were determined after carrying out assays at 3-fold serially diluted concentrations of each compound in duplication. The results were analyzed using linear regression software (GraphPad Prism 4; GraphPad Software Inc.). Inhibition of B-Raf, B-raf (V600E), and C-Raf kinases by various compounds listed in Table 1 are summarized and shown in Table 3 below. IC50 value is defined as the concentration of the test compound which achieves a half-maximal inhibition of the kinase activity.

Another assay addresses B-Raf (V600E) (Homo sapiens (Human), UniProt P15056, V600E). Briefly: Raf kinase assay (B-Raf (V600E)), [33P] incorporation into MEK1(K97R). The procedure:
as §1, §2

A further assay deals with C-Raf (Homo sapiens (Human), UniProt P04049). Briefly: Raf kinase assay (C-Raf), [33P] incorporation into MEK1(K97R). On the procedure:
as §1, §2

Structures are written as SMILES.

B-Raf, sequence (P15056 whole entry): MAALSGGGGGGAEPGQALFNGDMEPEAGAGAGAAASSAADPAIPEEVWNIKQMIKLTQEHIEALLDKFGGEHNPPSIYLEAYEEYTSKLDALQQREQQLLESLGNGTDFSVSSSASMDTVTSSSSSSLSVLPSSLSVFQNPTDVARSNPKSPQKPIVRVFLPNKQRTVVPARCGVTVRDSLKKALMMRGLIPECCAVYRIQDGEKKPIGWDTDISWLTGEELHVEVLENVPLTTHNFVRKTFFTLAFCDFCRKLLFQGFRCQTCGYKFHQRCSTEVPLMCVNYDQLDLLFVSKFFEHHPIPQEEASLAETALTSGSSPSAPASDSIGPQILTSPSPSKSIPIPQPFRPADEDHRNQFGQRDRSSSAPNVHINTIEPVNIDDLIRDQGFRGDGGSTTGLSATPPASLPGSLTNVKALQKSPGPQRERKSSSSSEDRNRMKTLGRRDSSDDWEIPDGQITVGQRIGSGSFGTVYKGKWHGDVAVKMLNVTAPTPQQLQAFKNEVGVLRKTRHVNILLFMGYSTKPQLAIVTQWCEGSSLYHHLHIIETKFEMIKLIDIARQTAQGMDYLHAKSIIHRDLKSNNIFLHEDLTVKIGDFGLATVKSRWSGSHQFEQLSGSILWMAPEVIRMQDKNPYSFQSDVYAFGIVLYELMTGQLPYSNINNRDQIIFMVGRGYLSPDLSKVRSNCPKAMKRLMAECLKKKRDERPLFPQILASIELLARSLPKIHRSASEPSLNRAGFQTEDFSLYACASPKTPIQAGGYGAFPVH
B-Raf (V600E), sequence (P15056 whole entry V600E): as the sequence (P15056 whole entry) above, with V600E counted along it
C-Raf, sequence (P04049 whole entry): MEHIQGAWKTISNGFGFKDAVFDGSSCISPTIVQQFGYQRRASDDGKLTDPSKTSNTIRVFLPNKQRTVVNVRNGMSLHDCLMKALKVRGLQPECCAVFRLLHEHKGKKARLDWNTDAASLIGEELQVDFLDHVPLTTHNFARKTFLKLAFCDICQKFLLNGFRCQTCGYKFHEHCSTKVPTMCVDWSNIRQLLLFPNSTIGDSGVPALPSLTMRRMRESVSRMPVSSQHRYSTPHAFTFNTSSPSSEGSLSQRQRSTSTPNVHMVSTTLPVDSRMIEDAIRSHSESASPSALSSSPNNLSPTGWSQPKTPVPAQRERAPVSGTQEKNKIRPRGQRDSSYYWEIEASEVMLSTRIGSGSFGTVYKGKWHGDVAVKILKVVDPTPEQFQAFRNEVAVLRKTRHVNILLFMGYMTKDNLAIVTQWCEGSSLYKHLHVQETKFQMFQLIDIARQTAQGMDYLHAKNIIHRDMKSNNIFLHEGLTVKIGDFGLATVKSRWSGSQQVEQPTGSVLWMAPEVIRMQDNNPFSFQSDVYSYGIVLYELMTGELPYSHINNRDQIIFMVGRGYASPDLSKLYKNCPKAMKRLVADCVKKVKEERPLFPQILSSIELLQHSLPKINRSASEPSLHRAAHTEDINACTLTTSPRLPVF

Regarding `Fc1cccc(-c2ccc3ncnc(Nc4cccc5[nH]ncc45)c3c2)c1` [Compound 81, 6-(3-fluorophenyl)-N-(1H-indazol-4-yl)quinazolin-4-amine], the half-maximal inhibitory concentration (IC50) against B-Raf is 244 nM; against B-Raf (V600E), 280 nM; on C-Raf, 588 nM. The inhibition at 1 µM at B-Raf is 79.1%.
On the same counts, the results for `COc1cc(-c2ccc3ncnc(Nc4ccc(C(=O)O)cc4O)c3c2)ccc1O` [Compound 34, 3-hydroxy-4-(6-(4-hydroxy-3-methoxyphenyl)quinazolin-4-ylamino)benzoic acid] are 494 nM, 572 nM, 580 nM and 65%.
As to `Clc1ccc(-c2ccc3ncnc(Nc4cccc5[nH]ncc45)c3c2)cc1` [Compound 80, 6-(4-chlorophenyl)-N-(1H-indazol-4-yl)quinazolin-4-amine], the IC50 at B-Raf came to 287 nM; on B-Raf (V600E), 289 nM; at C-Raf, 919 nM. For the same compound, on B-Raf, the inhibition at 1 µM was determined as 77.2%.
In the case of `OCc1cccc(-c2ccc3ncnc(Nc4cccc5[nH]ncc45)c3c2)c1` [Compound 94, (3-(4-(1H-indazol-4-ylamino)quinazolin-6-yl)phenyl)methanol], the IC50 turned out to be 430 nM against B-Raf, 551 nM against B-Raf (V600E) and 1410 nM against C-Raf. The inhibition at 1 µM on B-Raf was found to be 76.2%.
The like results for `COc1ccc(-c2ccc3nccc(Nc4cccc5[nH]ncc45)c3c2)cc1OC` [Compound 113, 6-(3,4-dimethoxyphenyl)-N-(1H-indazol-4-yl)quinolin-4-amine] were, in that order, 263 nM, 291 nM, 972 nM and 75.5%.
Consider `COc1cccc(-c2ccc3ncnc(Nc4cccc5[nH]ncc45)c3c2)c1` [Compound 144, N-(1H-indazol-4-yl)-6-(3-methoxyphenyl)quinazolin-4-amine], for which the results for the half-maximal inhibitory concentration (IC50) at B-Raf, against B-Raf (V600E) and against C-Raf were 309 nM, 472 nM and 3900 nM, respectively. Besides, the inhibition at 1 µM at B-Raf came out at 62.6%.
The like results for `CN(C)c1ccc(-c2ccc3ncnc(Nc4cccc(O)c4)c3c2)cc1` [Compound 106, 3-(6-(4-(dimethylamino)phenyl)quinazolin-4-ylamino)phenol] were, in that order, 272 nM, 292 nM, 3190 nM and 78.7%.
For the compound `Oc1ccc(-c2ccc3ncnc(Nc4ccccc4)c3c2)cc1` [Compound 4, 4-(4-(phenylamino)quinazolin-6-yl)phenol], the IC50 came to 3990 nM on B-Raf, 4870 nM on B-Raf (V600E) and 9460 nM against C-Raf.
On to `COc1cccc(-c2ccc3nccc(Nc4cccc5[nH]ncc45)c3c2)c1` [Compound 123, N-(1H-indazol-4-yl)-6-(3-methoxyphenyl)quinolin-4-amine], for which the 50% inhibitory concentration (IC50) against B-Raf was found to be 231 nM; against B-Raf (V600E) it was 263 nM; against C-Raf it was 688 nM. The inhibition at 1 µM at B-Raf came to 80.3%.
On the same counts, the results for `COc1ccc(-c2ccc3ncnc(Nc4cccc5[nH]ncc45)c3c2)cc1Cl` [Compound 76, 6-(3-chloro-4-methoxyphenyl)-N-(1H-indazol-4-yl)quinazolin-4-amine] are 216 nM, 240 nM, 876 nM and 86.1%.
For `COc1cc(-c2ccc3ncnc(Nc4cc(NS(C)(=O)=O)ccc4F)c3c2)ccc1O` [Compound 129, N-(4-fluoro-3-(6-(4-hydroxy-3-methoxyphenyl)quinazolin-4-ylamino)phenyl)methanesulfonamide], the concentration for half-maximal inhibition (IC50) amounted to 240 nM against B-Raf, 270 nM against B-Raf (V600E) and 1060 nM on C-Raf. Besides, on B-Raf, the inhibition at 1 µM was found to be 77.5%.
In the case of `Oc1ccc(-c2ccc3ncnc(Nc4cccc5[nH]ncc45)c3c2)cc1` [Compound 131, 4-(4-(1H-indazol-4-ylamino)quinazolin-6-yl)phenol], the 50% inhibitory concentration (IC50) stood at 451 nM against B-Raf, 547 nM on B-Raf (V600E) and 4210 nM on C-Raf. Also, the inhibition at 1 µM on B-Raf was 80.1%.
Take `Fc1ccccc1-c1ccc2nccc(Nc3cccc4[nH]ncc34)c2c1` [Compound 125, 6-(2-fluorophenyl)-N-(1H-indazol-4-yl)quinolin-4-amine]: the figures for the IC50 on B-Raf, against B-Raf (V600E) and against C-Raf were 285 nM, 423 nM and 1030 nM, respectively. Further, the inhibition at 1 µM on B-Raf was found to be 71.2%.
With `Fc1ccc(-c2ccc3ncnc(Nc4cccc5[nH]ncc45)c3c2)cc1Cl` [Compound 79, 6-(3-chloro-4-fluorophenyl)-N-(1H-indazol-4-yl)quinazolin-4-amine], the IC50 against B-Raf came out at 514 nM; at B-Raf (V600E) it was 557 nM; against C-Raf it was 1220 nM. Besides, the inhibition at 1 µM at B-Raf is 69.6%.
The like results for `COc1cc(-c2ccc3ncnc(Nc4ccc(C)c(O)c4)c3c2)ccc1O` [Compound 29, 4-(4-(3-hydroxy-4-methylphenylamino)quinazolin-6-yl)-2-methoxyphenol] were, in that order, 177 nM, 212 nM, 1060 nM and 85.7%.
On the same counts, the results for `Oc1cccc(-c2ccc3nccc(Nc4cccc5[nH]ncc45)c3c2)c1` [Compound 148, 3-(4-(1H-indazol-4-ylamino)quinolin-6-yl)phenol] are 230 nM, 359 nM, 584 nM and 68.9%.
On the same counts, the results for `COc1cc(-c2ccc3ncnc(Nc4ccc5cn[nH]c5c4)c3c2)ccc1O` [Compound 39, 4-(4-(1H-indazol-6-ylamino)quinazolin-6-yl)-2-methoxyphenol] are 1030 nM, 1440 nM, 3280 nM and 51.6%.
As for `CS(=O)(=O)Nc1ccc(-c2ccc3ncnc(Nc4cccc5[nH]ncc45)c3c2)cc1` [Compound 73, N-(4-(4-(1H-indazol-4-ylamino)quinazolin-6-yl)phenyl)methanesulfonamide], the values for the IC50 at B-Raf, against B-Raf (V600E) and on C-Raf were 366 nM, 487 nM and 1430 nM, respectively. Further, the inhibition at 1 µM at B-Raf amounted to 72.5%.
The like results for `COc1ccc(Nc2ncnc3ccc(-c4ccc(O)c(OC)c4)cc23)cc1O` [Compound 25, 4-(4-(3-hydroxy-4-methoxyphenylamino)quinazolin-6-yl)-2-methoxyphenol] were, in that order, 1110 nM, 842 nM, 1560 nM and 54.9%.
On the same counts, the results for `COc1cc(-c2ccc3ncnc(Nc4cccc(OC(F)F)c4)c3c2)ccc1O` [Compound 118, 4-(4-(3-(difluoromethoxy)phenylamino)quinazolin-6-yl)-2-methoxyphenol] are 548 nM, 525 nM, 988 nM and 68.2%.
As for `COc1ccc(-c2ccc3ncnc(Nc4cccc5[nH]ncc45)c3c2)cc1C` [Compound 78, N-(1H-indazol-4-yl)-6-(4-methoxy-3-methylphenyl)quinazolin-4-amine], the IC50 came out at 470 nM at B-Raf, 736 nM against B-Raf (V600E) and 1860 nM against C-Raf. Besides, the inhibition at 1 µM at B-Raf was 71.1%.
The like results for `CN(C)c1ccc(-c2ccc3ncnc(Nc4cccc5[nH]ncc45)c3c2)cc1` [Compound 90, 6-(4-(dimethylamino)phenyl)-N-(1H-indazol-4-yl)quinazolin-4-amine] were, in that order, 762 nM, 1010 nM, 4080 nM and 56.1%.
`COc1cccc(-c2ccc3ncnc(Nc4cccc(O)c4)c3c2)c1` [Compound 67, 3-(6-(3-methoxyphenyl)quinazolin-4-ylamino)phenol]: the IC50 turned out to be 103 nM against B-Raf, 139 nM at B-Raf (V600E) and 2400 nM against C-Raf. In addition, on B-Raf, the inhibition at 1 µM worked out at 84.3%.
With `Nc1ccc(-c2ccc3nccc(Nc4cccc5[nH]ncc45)c3c2)cc1` [Compound 121, 6-(4-aminophenyl)-N-(1H-indazol-4-yl)quinolin-4-amine], the half-maximal inhibitory concentration (IC50) came to 227 nM against B-Raf, 284 nM on B-Raf (V600E) and 753 nM on C-Raf. Also, the inhibition at 1 µM on B-Raf was 76.2%.
`COc1cc(-c2ccc3ncnc(Nc4cccc(O)c4C)c3c2)ccc1O` [Compound 53, 3-(6-(4-hydroxy-3-methoxyphenyl)quinazolin-4-ylamino)-2-methylphenol]: the 50% inhibitory concentration (IC50) is 141 nM at B-Raf, 181 nM on B-Raf (V600E) and 500 nM on C-Raf. On B-Raf, the inhibition at 1 µM turned out to be 85.5%.
The like results for `COc1ccc(-c2ccc3ncnc(Nc4cccc5[nH]ncc45)c3c2)cc1` [Compound 147, N-(1H-indazol-4-yl)-6-(4-methoxyphenyl)quinazolin-4-amine] were, in that order, 680 nM, 848 nM, 2950 nM and 50.7%.
